# Patent publication US20110237436A1, “Hydrate and anhydrous crystal form of the sodium salt of 2-iodo-N-[(4-methoxy-6-methyl-1,3,5-triazin-2-yl)carbamoyl]benzenesulfonamide, process for preparation thereof and use thereof as herbicides and plant growth regulators” (BAYER CROPSCIENCE AG, priority 2010, published 2011)
# How the values were obtained:
# [1] = Stability tests: storage of oil dispersions of the active ingredient; format: physicochemical
# Text: The oil dispersions described were produced analogously to DE 19951427.
# [2] = Practical testing of suspension formulations; format: physicochemical; details: effects occur spontaneously or over a longer period
# Text: The compound of the formula (I) known, for example, from WO 2009/053058 (compound I-2 in table 1 therein) has herbicidal properties and is suitable for the production of crop protection compositions which can be employed for weed control. […] User-friendly administration forms are, for example, suspension formulations or solid formulations in which the compound of the formula (I) is present in finely ground, solid form. […] There may, for example, be precipitation, crystal growth or solidification, such that the suspension formulation becomes unusable. These effects can occur spontaneously or over a longer period and cannot be foreseen.
# [3] = in the course of production of oil dispersions or storage at room temperature, within hours or a few days
# [4] = oil dispersion produced analogously to DE 19951427, storage at different temperatures for several weeks
SMILES,"change in viscosity of the oil dispersions [1, 3]","precipitation or crystallization of the active ingredient in the oil dispersion [1, 3]",physical stability of suspension formulations [2],"change in the viscosity of the oil dispersions [1, 4]","signs of precipitation or crystallization of the active ingredient in the oil dispersion [1, 4]"
"COc1nc(C)nc(NC(=O)[N-]S(=O)(=O)c2ccccc2I)n1.[Na+] [amorphous sodium salt, sodium salt of 2-iodo-N-[(4-methoxy-6-methyl-1,3,5-triazin-2-yl)carbamoyl]benzenesulfonamide]","significant rises in viscosity, up to and including complete solidification",precipitation or crystallization of the active ingredient,physically unstable formulations,,
"COc1nc(C)nc(NC(=O)[N-]S(=O)(=O)c2ccccc2I)n1.[Na+] [hydrate, hydrate of the sodium salt of 2-iodo-N-[(4-methoxy-6-methyl-1,3,5-triazin-2-yl)carbamoyl]benzenesulfonamide]",,,,Nor was any change found in the viscosity,did not exhibit any signs of precipitation or crystallization of the active ingredient
